The source of these data is publication PMC11124387, “A Reliable Multifaceted Solution against Foodborne Viral Infections: The Case of RiLK1 Decapeptide” (Molecules, 2024).

“And” between values parts separate entries of the source, which are not always exact repeats. Identical values can stand only once. Like-named read-outs stand apart in the source and are kept apart here. Where a SMILES comes first, the peptide text is derived from it.

The subject of series [1] is Hepatitis A virus (HAV) strain HM-175. In words: Virus pre-treatment assay, HAV. The format is cell-based. To be noted: virus pre-treatment: peptide 80 µM with virus 1 h at RT, mean ± SD; for Viral Titre: then on Frp3 cells 1 h 37 °C. The protocol:
(§1) Four sets of experiments were performed to suppose the effect of RiLK1 and RiLK3 on HAV and MNV-1 [29]. To this aim, 80 µM solutions of the two peptides and HAV and MNV-1 suspensions at a final concentration of 4.7 ± 0.2 log TCID50/mL and 4.5 ± 0.2 log TCID50/mL, respectively, were used in the following experiments: • i) A virus pre-treatment assay to assess the direct interaction between the virus and peptide: the incubation of the peptide with viral suspension for 1 h at room temperature was carried out, followed by its incubation on cells for 1 h at 37 °C. Then, cell monolayers were washed twice with PBS and incubated with 500 µL DMEM/MEM supplemented with 2% of FBS to determine the TCID50/mL. • ii) A cell pre-treatment assay to assess the interaction between the peptide and cells before the viral infection: cell monolayers were preincubated with 100 µL of peptide solution for 1 h at 37 °C, followed by the removal of the peptide, addition to cells of viral suspensions for 1 h at 37 °C, washing step, and culture with 2% FBS DMEM/MEM. • iii) An attachment assay to assess the possible action of the peptide at the stage of virus attachment to cells: cell monolayers were incubated with 100 µL of a suspension containing both the peptide and virus and were incubated for 1 h at 4 °C. […]
(§2) For each treatment, the average and standard deviation of the triplicate analyses were calculated. The virucidal effects of AMPs was assessed by calculating the log reduction value (LRV), i.e., the difference between the infectious titer (log-transformed) of untreated versus treated samples. The statistical significance of differences between treated and untreated samples was determined through one-way analysis of variance (ANOVA) with Bonferroni post hoc comparisons, with a significance level of p < 0.05 (GraphPad Prism v9.5.0, software San Diego, CA, USA).

The test system is the same in series [2]. In words: Cell pre-treatment assay, HAV. The format is cell-based. The note with it: cell pre-treatment: cells with peptide 80 µM 1 h 37 °C, peptide removed, then virus 1 h 37 °C, mean ± SD. On the procedure: (§3) Four sets of experiments were performed to suppose the effect of RiLK1 and RiLK3 on HAV and MNV-1 [29]. To this aim, 80 µM solutions of the two peptides and HAV and MNV-1 suspensions at a final concentration of 4.7 ± 0.2 log TCID50/mL and 4.5 ± 0.2 log TCID50/mL, respectively, were used in the following experiments: • i) A virus pre-treatment assay to assess the direct interaction between the virus and peptide: the incubation of the peptide with viral suspension for 1 h at room temperature was carried out, followed by its incubation on cells for 1 h at 37 °C. Then, cell monolayers were washed twice with PBS and incubated with 500 µL DMEM/MEM supplemented with 2% of FBS to determine the TCID50/mL. • ii) A cell pre-treatment assay to assess the interaction between the peptide and cells before the viral infection: cell monolayers were preincubated with 100 µL of peptide solution for 1 h at 37 °C, followed by the removal of the peptide, addition to cells of viral suspensions for 1 h at 37 °C, washing step, and culture with 2% FBS DMEM/MEM. • iii) An attachment assay to assess the possible action of the peptide at the stage of virus attachment to cells: cell monolayers were incubated with 100 µL of a suspension containing both the peptide and virus and were incubated for 1 h at 4 °C. Subsequently, the cell monolayers were washed with PBS and incubated for 1 h at 37 °C with a culture medium followed by a washing step and the addition of culture with 2% FBS DMEM/MEM. • iv) An entry assay to assess the possible action of the peptide at the stage of virus internalization into cells: cell monolayers were incubated with 100 µL of the viral suspension for 1 h at 4 °C, followed by the addition of the peptide and incubation for 1 h at 37 °C. Cells were then washed with PBS, and 2% FBS DMEM/MEM was finally added.
(§4) Untreated viral suspensions and peptide solutions, incubated at the same conditions, were used as controls.
as §2

The conditions of series [3]: cited from earlier work; for structural stability: pH 2; for conformation in mimicked membrane solutions (self-aggregation): ref [41],[42],[43],[44],[45]. On the procedure: In this context, to acquire important information on how the conformational properties of peptides might influence the structure–function relationships and their distinct membrane interaction profiles, the propensity of the new peptides, RiLK30 and AVP2, to adopt a defined secondary structure and to undergo conformational changes were examined by circular dichroism and fluorescence spectroscopy. These analyses were performed in the presence of a negatively charged SDS that is commonly used as a biomimetic membrane model to study the structural features of membranotropic molecules. In previous ...

Series [4] concerns Murine norovirus strain 1 (MNV-1). The series is described as follows: Attachment assay, MNV-1. The format is cell-based. To be noted: attachment: cells with peptide 80 µM and virus together 1 h at 4 °C, mean ± SD. The protocol:
as §3, §4, §2

Series [5] relates to Hepatitis A virus (HAV) strain HM-175. In words: Virucidal effect of peptides on HAV (residual infectivity by TCID50 titration on Frp3 cells). The note with it: for Viral Titre after Treatment / LRV (log reduction value): 1 h at 4 °C, mean ± SD, triplicate; for Viral Titre after Treatment: titration on Frp3 cells; for LRV (log reduction value): untreated minus treated titre. It is filed as cell-based.

The subject of series [6] is Murine norovirus strain 1 (MNV-1). It is filed as cell-based. The note with it: for Viral Titre after Treatment: titration on RAW 264.7 cells; for Viral Titre after Treatment / LRV (log reduction value): mean ± SD, triplicate.
Series [7] has the same test system. The series is described as follows: Virus pre-treatment assay, MNV-1. The format is cell-based. The note with it: virus pre-treatment: peptide 80 µM with virus 1 h at RT, mean ± SD; for Viral Titre: then on RAW 264.7 cells 1 h 37 °C. The protocol: as §1, §2
Setting [8] is: HAV 4.7 ± 0.2 log TCID50/mL + peptide 80 µM.
[9] abbreviates: MNV-1 4.5 ± 0.2 log TCID50/mL + peptide 80 µM, 1 h at 4 °C.
[10] abbreviates: MNV-1 + peptide 40 µM, 1 h at 4 °C.
Setting [11] is: MNV-1 + peptide 40 µM, 1 h at RT (20 ± 2 °C).
Where [12] appears, read: MNV-1 + peptide 80 µM, 1 h at 4 °C.
Where [13] appears, read: MNV-1 + peptide 80 µM, 1 h at RT (20 ± 2 °C).
The mark [14] stands for this setting: maximum reduction, corresponding to the highest LRV.

“RLRWVRIWRR-NH2 [RiLK3, RiLK1 analog differing by one amino acid (Lys replaced with Arg), C-terminally amidated]”: the “Viral Titre” value in series [1] was 4.4 ± 0.1 logTCID50/mL; in series [2], 3.8 ± 0.2 logTCID50/mL; in series [4] it was 3.5 ± 0.1 logTCID50/mL; in series [7], 4.5 ± 0.1 logTCID50/mL. The LRV in series [1] (then on cells 1 h 37 °C) is 0.3 ± 0.3 logTCID50/mL; in series [2], 0.9 logTCID50/mL and 0.9 ± 0.4 logTCID50/mL; in series [4], 1.0 logTCID50/mL and 1.0 ± 0.3 logTCID50/mL; in series [7] (then on cells 1 h 37 °C), 0 ± 0.3 logTCID50/mL. Moreover, in series [3], the structural stability entry is “high structural stability”. In series [3], the “conformation in mimicked membrane solutions (self-aggregation)” value was “higher-ordered self-aggregates”. The “Viral Titre after Treatment” value in series [5] (setting [8]) is recorded as 4.6 ± 0.1 logTCID50/mL; in series [5] (HAV + peptide 40 µM), 4.6 ± 0.3 logTCID50/mL; in series [6] (setting [9]) it was 4.5 ± 0.2 logTCID50/mL; in series [6] (setting [10]) it was 4.5 ± 0.1 logTCID50/mL; in series [6] (setting [11]) it was 4.5 ± 0.2 logTCID50/mL; in series [6] (setting [13]), 4.5 ± 0.1 logTCID50/mL. Also, the “LRV (log reduction value)” value in series [5] (HAV + peptide 40 µM) amounted to 0.1 ± 0.2 logTCID50/mL; in series [5] (HAV + peptide 80 µM), 0.1 ± 0.3 logTCID50/mL; in series [6] (setting [10]) it was 0 ± 0.3 logTCID50/mL; in series [6] (setting [11]), 0 ± 0.4 logTCID50/mL; in series [6] (setting [12]), 0 ± 0.4 logTCID50/mL; in series [6] (setting [13]), 0 ± 0.3 logTCID50/mL. For the same compound, in series [6] (40 and 80 µM, 4 °C and RT), the “virucidal activity toward MNV-1 (in words)” value is “not effective”.

Take `CC[C@H](C)[C@H](NC(=O)[C@H](CCCNC(=N)N)NC(=O)[C@@H](NC(=O)[C@H](Cc1c[nH]c2ccccc12)NC(=O)[C@H](CCCCN)NC(=O)[C@H](CC(C)C)NC(=O)[C@@H](N)CCCNC(=N)N)C(C)C)C(=O)N[C@@H](Cc1c[nH]c2ccccc12)C(=O)N[C@@H](CCCNC(=N)N)C(=O)N[C@@H](CCCNC(=N)N)C(N)=O` [RiLK1] (H-RLKWVRIWRR-NH2; N-terminus assumed): the “Viral Titre” value in series [1] is 3.3 ± 0.2 logTCID50/mL; in series [2] it was 4.6 ± 0.1 logTCID50/mL; in series [4], 3.1 ± 0.2 logTCID50/mL; in series [7], 3.3 ± 0.2 logTCID50/mL. Also, the LRV was 0.1 ± 0.3 logTCID50/mL in series [2]; 1.4 logTCID50/mL and 1.4 ± 0.4 logTCID50/mL in series [4]. The structural stability result in series [3] is reported as “high structural stability”. Besides, the “conformation in mimicked membrane solutions (self-aggregation)” value in series [3] was “higher-ordered self-aggregates”. The “Viral Titre after Treatment” value was 3.6 ± 0.1 logTCID50/mL in series [5] (setting [8]); 3.9 ± 0.2 logTCID50/mL in series [5] (HAV + peptide 40 µM); 4.3 ± 0.2 logTCID50/mL in series [6] (setting [9]); 4.3 ± 0.2 logTCID50/mL in series [6] (setting [10]); 3.5 ± 0.2 logTCID50/mL in series [6] (setting [11]); 3.3 ± 0.2 logTCID50/mL in series [6] (setting [13]). Also, the “LRV (log reduction value)” value in series [5] (HAV + peptide 40 µM) worked out at 0.8 ± 0.4 logTCID50/mL; in series [5] (HAV + peptide 80 µM), 1.1 ± 0.3 logTCID50/mL; in series [6] (setting [10]), 0.2 ± 0.4 logTCID50/mL; in series [6] (setting [11]) it was 1.0 ± 0.4 logTCID50/mL; in series [6] (setting [12]), 0.2 ± 0.4 logTCID50/mL; in series [6] (setting [13]), 1.2 ± 0.4 logTCID50/mL. Moreover, the “decrease of HAV infectious titer” value in series [5] (setting [14]) is listed as “up to 96.7%”. For the same compound, the “reduction of MNV-1 infectivity” value in series [6] (setting [14]) is “up to 94.1%”.
